Reference: US9951055B2, “Thiazole-based inhibitors of scavenger receptor BI” (THE BROAD INSTITUTE, INC., priority 2012, dated 2018)
pEC50, pIC50: −log10 of the molar value. “Also recorded” adds a separate entry of the source. Read-outs that look alike come from different tables or passages of the source.

How the values were obtained:
[1] = test system: Jc1 378-1 TagRFP reporter HCV virus; assay: In vitro inhibition of HCV in Huh-7.5 cells; type: cell-based, hepatitis C virus; settings: for inhibition of HCV replication: Huh-7.5 cells, MOI=0.1, 3 dpi; for mean fluorescence intensity (MFI) of HCV positive cells: normalized to DMSO control
Method: The compound of formula (II) was also tested for the in vitro inhibition of HCV. Huh-7.5 cells were seeded in a 24-well plates (50,000 cells/well) and incubate over night. The medium was changed to compound/solvent containing medium 2 hours prior to infection (200 μL/well) with a reporter HCV virus called Jc1 378-1 TagRFP. A dilute virus stock was used to infect at a MOI of 0.1 (7,500 IU/well) in 10 μL medium. 10 μL of virus dilution was added to the wells containing compound/solvent (thereby dilution the compounds by only ˜5%). Infections were incubated for 4 hours before washing off the inoculum 1× with 500 μL medium. Fresh compound/solvent containing medium was added to the cells (500 μL/well), and further incubated for 48-72 hours. Cells were harvested at 48-72 hpi and viral replication was determined by fixing the cells and measuring replication by FACS (fluorescence activated cell sorting). Controls having antibodies that neutralize HCV by blocking E2 (2 μg/mL) and controls having antibodies that block a HCV receptor CD81 (2 μg/mL) were used.
A series of tests were conducted using the compound of Formula II ML278), other known inhibitors of SRB1 and controls with cells infected with hepatitis C virus (HCV). The cells (Huh-7.5 cells infected with Jc1 378-1 TagRFP (MOI=0.1) 3 dpi) were treated with the following SR-BI compounds and controls:
Three different infection protocols were followed: (1) no wash—virus inoculum was removed 4 hpi and fresh medium containing compounds added without washing cells; (2) 5× wash—virus inoculum was removed 4 hpi, cells were washed 5× with PBS and fresh medium containing compounds added; and (3) no wash Opt—infection were performed in serum-free OptiMem; virus inoculum was removed 4 hpi and fresh medium containing compounds added without washing cells. FIG. 107 provides a comparison of the three different infection set-ups. FIG. 108 provides a comparison of two independent experiments.

murine SR-BI [2] = target: T1, murine SR-BI (Mus musculus, UniProt Q61009); assay: DiI-HDL uptake assay with washout; type: cell-based
T1 construct: expressed in transfected cells; host or cells: ldlA[mSR-BI]; (CHO ldlA7 derivative lacking the LDL receptor)
T1 sequence (Q61009 1-509): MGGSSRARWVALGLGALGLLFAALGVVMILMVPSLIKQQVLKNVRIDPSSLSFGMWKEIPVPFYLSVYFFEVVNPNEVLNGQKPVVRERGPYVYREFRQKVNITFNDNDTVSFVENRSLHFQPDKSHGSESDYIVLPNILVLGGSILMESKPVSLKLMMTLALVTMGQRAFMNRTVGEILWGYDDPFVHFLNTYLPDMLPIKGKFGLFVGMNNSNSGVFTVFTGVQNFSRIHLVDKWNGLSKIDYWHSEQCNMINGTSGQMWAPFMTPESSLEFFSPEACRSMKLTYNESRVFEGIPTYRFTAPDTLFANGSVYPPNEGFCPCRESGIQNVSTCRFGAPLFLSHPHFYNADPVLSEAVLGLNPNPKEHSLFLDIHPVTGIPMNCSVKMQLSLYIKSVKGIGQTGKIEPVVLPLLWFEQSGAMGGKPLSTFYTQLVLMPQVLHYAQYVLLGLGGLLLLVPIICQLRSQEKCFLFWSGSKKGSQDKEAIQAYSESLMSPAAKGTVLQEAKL
Method: DiI-HDL Uptake Assay with Washout (SA 5: AID No. 588831)
This is a modification of the primary assay where cells are treated with compound prior to the addition of DiI-HDL but no compound is present during the DiI-HDL treatment period. ldlA[mSR-BI]cells were plated into 384-well plates at 30 μl per well and incubated overnight. Cells were treated with compound for 3 hours, then media were removed and the cells were washed with PBS before fresh lipoprotein-free media (Ham's F12/0.5% fatty acid-free Bovine Serum Albumin [BSA]/25 mM HEPES pH 7.4) was added with […] DiI-HDL. Cells took up the DiI via SR-BI over 3 hours in the absence of compound. After significant uptake of the DiI, the cells became fluorescent. The level of fluorescence correlates with the amount of DiI uptake and can be measured with a standard plate reader. The uptake of lipid (represented by DiI) was inhibited by the compound BLT-1.

murine SR-BI [3] = target: T1, murine SR-BI; assay: DiI-HDL uptake assay (primary assay); type: cell-based
Excerpt: The following cell lines were used in this study: • ldlA[mSR-BI] is a Chinese hamster ovary (CHO) cell line that overexpresses murine SR-BI, isoform 1 (NP_058021) and was obtained from the Assay Provider (Krieger Laboratory). This cell line was used for the primary assay and several secondary assays. […] This cell line was obtained from the Assay Provider. Assays DiI-HDL Uptake Assay (Primary Assay AID Nos. 488896, 493194, 540354 588392, 588553, 588548, 588754, 588828, 588833)
ldlA[mSR-BI]cells were plated into 384-well plates at 30 μl per well and incubated overnight. As a measurable surrogate for cholesterol uptake, human HDL particles were treated with the lipophilic fluorescent dye DiI and exposed to ldlA[mSR-BI]cells in lipoprotein-free media (Ham's F12/0.5% fatty acid-free Bovine Serum Albumin (BSA)/25 mM HEPES pH 7.4 plus 10 μg protein/ml DiI-HDL). Cells took up the DiI via SR-BI over 3 hours in the presence of compound. After significant uptake of the DiI, the cells became fluorescent. The level of fluorescence correlates with the amount of DiI uptake and can be measured with a standard plate reader (here a PerkinElmer EnVision plate reader was used). The uptake of lipid (represented by DiI) was inhibited by the positive control compound BLT-1 or with an excess of HDL untreated with DiI. Primary HTS data were analyzed in Genedata Screener Assay Analyzer, and were normalized against DMSO and the positive control (1 μM BLT-1). For the HTS, the average of two replicates was used to rank order activity and to choose compounds for retests. For dose studies, percent (%) activity was determined for each concentration and the concentration response curves (CRCs) were generated with Genedata Condeseo.
To identify novel inhibitors, SR-BI-mediated lipid uptake was measured in an engineered cell line that minimized potential uptake by other mechanisms, including via the LDL receptor (1). ldlA[mSR-BI]cells overexpress murine isoform 1 and selectively take up HDL lipid at similar levels as “has been reported for cultured mouse adrenal cells, perfused organs, and liver, adrenal gland and ovary in vivo” (1). This primary cell-based assay was used in a pilot screen that identified BLTs 1 through 5 (12). The assay was slightly modified from the original protocol of Nieland et al. to increase throughput and to ease automation procedures.

## CCCCCCC1CCCC1=NNC(N)=S (stereo not shown) [BLT-1, reference compound]
[1]; listed as SRB1-8
  inhibition of HCV replication: inhibited viral replication; also recorded: able to inhibit HCV replication
[1]
  mean fluorescence intensity (MFI) of HCV positive cells: increased mean fluorescence intensity (MFI) of HCV positive cells in a dose dependent manner
Murine SR-BI [2]
  reversibility of inhibition: nonreversible covalent modifier of SR-BI
Murine SR-BI [3]; 1 μM, positive control in primary HTS
  reduction in signal (DiI-HDL uptake): > 2.2 fold

## COCC(=O)N1CCc2cc(-c3csc(NC(=O)c4cc(OC)cc(OC)c4)n3)ccc21 [Compound 137, 3,5-Dimethoxy-N-(4-(1-(2-methoxyacetyl)indolin-5-yl)thiazol-2-yl)benzamide]
[1]; Hepatitis C virus, Huh7.5, read-out: EC50, HCV
  pEC50: 7.36
[1]; Hepatitis C virus, Huh7.5, read-out: EC90, HCV
  EC90: ~500 nM
[1]; listed as SRB1-7
  inhibition of HCV replication: inhibited viral replication; also recorded: able to inhibit HCV replication
[1]
  mean fluorescence intensity (MFI) of HCV positive cells: this increase was not seen
Murine SR-BI [2]
  inhibition after washout at the IC50 concentration: no inhibition
Murine SR-BI [2]; cells pre-treated, washed with PBS, DiI-HDL without compound, read-out: IC50 after washout
  pIC50: 6.52
Murine SR-BI [2]; listed as ML278
  reversibility of inhibition: reversible inhibitor of HDL uptake
Murine SR-BI [2]; listed as Probe 278
  reversibility of inhibition: reversible inhibitor
Murine SR-BI [3]
  higher potency than ITX-5061: approximately 15 fold
  improved potency over the original hit: > 20 fold
  selectivity: greater than 1000
Murine SR-BI [3]; read-out: IC50, DiI-HDL uptake
  pIC50: 8.70
